The nature of series [1]: Tryptophan fluorescence emission spectra of protein:lipid complexes. In kind it is physicochemical. Conditions: mole ratio lipid:rhG-CSF 100:1. Here is the method: There are two tryptophan residues in rhG-CSF that are quite sensitive to local environmental conditions. Therefore, analysis was performed to determine the rhG-CSF tryptophan fluorescence when the rhG-CSF is contacted with a liposome. […] An excellent review of tryptophan fluorescence analysis is […], by J. Lakowicz, Chap 11 (Plenum Press, New York, 1983).
Tryptophan fluorescence of the G-CSF:lipid complexes (as described above) was assayed by exciting the samples at 280 nm and while scanning the emission from 285 nm to 420 nm in 1nm increments at a rate of 1 nm/sec. The sample volume was 3 ml and the final concentration of G-CSF was 0.2 mg/ml for all samples. The lipid:G-CSF ratios varied. All fluorescence measurements were carried out using a PTI Alphascan fluorometer (South Brunswick, NJ). All measurements were performed at 25°C and this temperature was maintained through the use of a water-jacketed cuvette holder connected to a circulating water bath. Emission spectra were collected and analyzed using the data software provided by PTI.
In this example, the ability of rhG-CSF to interact with other phospholipids was determined using comparisons of F/FO intensity and emission maximums as described above. In each instance, the mole ratio of lipid:rhG-CSF was 100:1.
In this example, chemically modified G-CSF (pegylated G-CSF (PEG-G-CSF)) and G-CSF obtained as a product of eucaryotic host cell expression (CHO-G-CSF) were tested for their ability to interact with negatively charged lipid vesicles. For the CHO-G-CSF, the determinations were made using comparisons of F/FO intensity and emission maximums (as described in Example 1 above). In each instance, the mole ratio of lipid:protein was 100:1. For the PEG-G-CSF, the determination was based upon circular dichroism analysis.

Series [2] is described as follows: Circular dichroism at 222 nm, thermal stability and temperature cycling. In kind it is physicochemical. Conditions: for effect on secondary structure of rhG-CSF (circular dichroism): 150:1 lipid:rhG-CSF ratio, heated to 95°C and cooled to 10°C; for thermal stability of GM-CSF (circular dichroism): lipid:GM-CSF ratio 17:1, PBS pH 7.0, heated to 90°C and cooled to 10°C. In general terms: CD spectra are sensitive to the conformation of chiral molecules.

Series [3] has as its system murine bone marrow cells. In words: In vitro activity: G-CSF dependent uptake of [3H]-thymidine by bone marrow cells. It counts as cell-based. Conditions: lipid mixed with rhG-CSF, lipid:protein ratio 100:1; control untreated rhG-CSF without lipid. As to the method: In this example, the effect of the rhG-CSF:DOPG interaction as it relates to the biological activity of rhG-CSF was determined. The in vitro activity of rhG-CSF was assayed utilizing the G-CSF dependent uptake of [^3H]-thymidine by murine bone marrow cells as described in Zsebo et al., Immunobiology 172: 175-184 (1986). All activity assays were performed in triplicate. In vivo activity was determined by subcutaneous injection of hamsters (rhG-CSF dose of 100 µg/kg) and measurements of white blood cell (WBC) count.
After heating to 85°C for 10 minutes, rhG-CSF has undetectable activity and the protein precipitates. […] B. The ability of various lipids to stabilize rhG-CSF during freeze drying was also studied. Samples of rhG-CSF in combination with various lipids were freeze dried and assayed (as described above) for activity.

Consider `CCCCCCCCCCCCCC(=O)OC[C@H](COP(=O)([O-])OCC[N+](C)(C)C)OC(=O)CCCCCCCCCCCCC` [DMPC, reference compound], for which the “effect on emission maximum and fluorescence intensity of rhG-CSF” value in series [1] is on record as “little if no effect”.

Regarding `CCCCCCCCCCCCCC(=O)OCC(COP(=O)(O)OCC(O)CO)OC(=O)CCCCCCCCCCCCC` (centres unmarked) [DMPG, dimyristoylphosphatidylglycerol], the “insertion of rhG-CSF into lipid vesicles (F/FO and emission maximum)” value (“insertion of rhG-CSF into lipid vesicles” for short) in series [1] was “can insert”. In series [2], the “effect on secondary structure of rhG-CSF (circular dichroism)” value is given as “stabilize the secondary structure of rhG-CSF” and the “thermal stability of GM-CSF (circular dichroism)” value is recorded as “recovery of secondary structure after heating”. In addition, the “retention of rhG-CSF bioactivity after freeze drying” value (“retention … after freeze drying” below) in series [3] is given as roughly 100%.

Turning to `CCCCCCCC/C=C\CCCCCCCC(=O)OC[C@H](COP(=O)([O-])OCC[N+](C)(C)C)OC(=O)CCCCCCC/C=C\CCCCCCCC` [DOPC, reference compound], the “effect on emission maximum and fluorescence intensity of rhG-CSF” value in series [1] is given as “little if no effect”.

Regarding `CCCCCCCC/C=C\CCCCCCCC(=O)OC[C@H](COP(=O)(O)OCC(O)CO)OC(=O)CCCCCCC/C=C\CCCCCCCC` (some centres unmarked) [DOPG, dioleoylphosphatidylglycerol], the “insertion of rhG-CSF into lipid vesicles” value in series [1] is recorded as “can insert”. The “retention … after freeze drying” value in series [3] is roughly 100%.

Turning to `CCCCCCCCCCCCCCCC(=O)OC[C@H](COP(=O)([O-])OCC[N+](C)(C)C)OC(=O)CCCCCCCCCCCCCCC` [DPPC, reference compound], the “effect on emission maximum and fluorescence intensity of rhG-CSF” value in series [1] is “little if no effect”.

`CCCCCCCCCCCCCCCC(=O)OCC(COP(=O)(O)OCC(O)CO)OC(=O)CCCCCCCCCCCCCCC` (centres unmarked) [DPPG, dipalmitoylphosphatidylglycerol]: in series [1], the “insertion of rhG-CSF into lipid vesicles” value is on record as “can insert”. In addition, in series [2], the “effect on secondary structure of rhG-CSF (circular dichroism)” value is listed as “stabilize the secondary structure of rhG-CSF” and the “thermal stability of GM-CSF (circular dichroism)” value is “recovery of secondary structure after heating”. Besides, the “retention … after freeze drying” value in series [3] is given as roughly 100%.

In the case of `CCCCCCCCC=CCCCCCCCC(=O)OCC(COP(=O)(O)OCCNC(=O)CCCC(=O)O)OC(=O)CCCCCCCC=CCCCCCCCC` (centres unmarked) [NG-DOPE], the “insertion of rhG-CSF into lipid vesicles” value in series [1] is on record as “improved insertion of the rhG-CSF than DOPE”.

The record behind these values is EP0671905B1, “STABLE PROTEIN: PHOSPHOLIPID COMPOSITIONS AND METHODS” (Amgen Inc., priority 1993, dated 1995).
